Measurements from BindingDB's records for patent US20240043403 (Astellas Pharma, 2024).

Molecular target: Diacylglycerol kinase zeta (Homo sapiens, UniProt Q13574)
Assay: Evaluation of DGKdelta Inhibitory Effect
Method: To a 384-well plate (Greiner Bio-One Co., Ltd.), 3 μL of a DGK ξ enzyme dissolved in an assay buffer (40 mM Tris-HCl pH 7.5, 10 mM MgCl2, 1 mM dithiothreitol (DTT) and 0.1 mg/mL bovine serum albumin (BSA)) (90 ng/mL) was added, and 3 μL of the test compound diluted with the same assay buffer was added so that an intended final concentration was obtained. The mixture was left standing at room temperature for 15 minutes, 3 μL of a substrate (150 μM 1-oleoyl-2-acetyl-sn-glycerol (Sigma-Aldrich Co. LLC), 480 μM phosphatidylserine (Avanti, Inc.) and 150 μM UltraPure-ATP (attached to ADP-Glo)) was then added, and the mixture was left standing at room temperature for 30 minutes to react. Thereafter, 3 μL of an ADP-Glo Reagent was added, and the mixture was left standing at room temperature for 40 minutes to stop the enzyme reaction. Further, 6 μL of a Kinase-Detection Reagent was added, the mixture was left standing at room temperature for 30 minutes, and the luminescence was then measured using ARVO X3 (PerkinElmer, Inc.). The half maximal inhibitory concentration (IC50) was calculated by Sigmoid-Emax model non-linear regression analysis, where the signal value in solvent treatment was set to 0% inhibition and the signal value without addition of the DGK ξ enzyme was set to 100% inhibition.

Diacylglycerol kinase zeta, sequence (Q13574 whole entry): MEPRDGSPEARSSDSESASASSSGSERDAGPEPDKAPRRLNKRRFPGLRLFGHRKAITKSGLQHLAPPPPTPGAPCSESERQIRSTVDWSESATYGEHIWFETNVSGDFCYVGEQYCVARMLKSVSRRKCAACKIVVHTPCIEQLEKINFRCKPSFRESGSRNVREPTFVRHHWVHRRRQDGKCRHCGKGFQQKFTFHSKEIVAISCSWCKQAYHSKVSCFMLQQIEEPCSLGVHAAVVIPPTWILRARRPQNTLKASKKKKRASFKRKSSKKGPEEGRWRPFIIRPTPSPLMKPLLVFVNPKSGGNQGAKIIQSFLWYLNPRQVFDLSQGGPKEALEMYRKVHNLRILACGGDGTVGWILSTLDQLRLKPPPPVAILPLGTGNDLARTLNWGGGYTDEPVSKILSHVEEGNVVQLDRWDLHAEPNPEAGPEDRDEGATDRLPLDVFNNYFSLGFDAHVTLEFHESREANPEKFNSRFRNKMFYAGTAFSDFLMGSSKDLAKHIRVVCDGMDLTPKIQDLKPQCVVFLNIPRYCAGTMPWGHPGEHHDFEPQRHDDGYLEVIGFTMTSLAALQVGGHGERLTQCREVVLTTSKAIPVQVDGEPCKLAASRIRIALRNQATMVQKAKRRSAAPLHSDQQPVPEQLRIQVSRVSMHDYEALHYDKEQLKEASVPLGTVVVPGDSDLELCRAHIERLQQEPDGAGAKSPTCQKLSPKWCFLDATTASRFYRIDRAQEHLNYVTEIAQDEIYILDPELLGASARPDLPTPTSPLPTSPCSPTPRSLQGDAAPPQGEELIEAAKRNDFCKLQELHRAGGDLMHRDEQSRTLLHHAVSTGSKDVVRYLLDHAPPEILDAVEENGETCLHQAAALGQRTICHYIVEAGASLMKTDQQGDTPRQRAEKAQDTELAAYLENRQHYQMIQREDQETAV

In the case of `NC[C@@H]1CCCN(c2c(NC(=O)c3ccn(CC(F)F)n3)ccc(Oc3ccccc3F)c2C(F)(F)F)C1` [US20240043403, Example 1], the IC50 is reported as 16 nM.
